Laboratory results from patent publication US6191135A, “Neurokinin antagonists” (Boehringer Ingelheim KG, priority 1994, dated 2001).

Each molecule was assayed against T1, NK1 -receptor (substance P-receptor) (Homo sapiens, UniProt P25103) (assay: NK1-receptor affinity: displacement of 125I labelled substance P on intact human lymphoblastoma cells (IM-9)). Conditions: intact human lymphoblastoma cells (IM-9) expressing NK1-receptors, read-out: Ki.
T1 construct: intact human lymphoblastoma cells (IM-9) which express NK1 -receptors; endogenous in cells; host or cells: IM-9 human lymphoblastoma cells
T1 sequence (P25103 whole entry): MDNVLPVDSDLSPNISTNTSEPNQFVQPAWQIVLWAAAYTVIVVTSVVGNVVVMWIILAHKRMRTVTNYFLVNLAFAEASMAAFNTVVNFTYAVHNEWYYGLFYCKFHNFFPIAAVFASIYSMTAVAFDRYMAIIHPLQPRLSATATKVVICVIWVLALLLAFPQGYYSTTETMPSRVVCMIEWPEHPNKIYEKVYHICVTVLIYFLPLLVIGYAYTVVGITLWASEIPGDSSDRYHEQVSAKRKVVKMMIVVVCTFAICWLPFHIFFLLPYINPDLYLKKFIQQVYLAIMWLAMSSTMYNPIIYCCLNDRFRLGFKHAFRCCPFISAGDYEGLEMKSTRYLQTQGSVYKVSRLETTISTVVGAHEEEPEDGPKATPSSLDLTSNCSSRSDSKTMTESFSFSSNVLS
Assay type: binding
Procedure: The receptor affinity for the NK1 -receptor (substance P-receptor) was determined on intact human lymphoblastoma cells (IM-9) which express NK1 -receptors, and the displacement of ^125 I labelled substance P was measured.

Row | SMILES | Ki
1 | COc1ccccc1C(CNC(=O)Nc1cc(C(F)(F)F)cc(C(F)(F)F)c1)N1CCN(C2CCCC2)CC1 (stereo not drawn) [Example 111, N-3,5-Bistrifluoromethylphenyl-N'-[2-(2-methoxyphenyl)-2-(4-cyclopentylpiperazine-1-yl)-ethyl]-urea] | 12 nM
2 | FC(F)(F)c1cc(CNCC(c2ccccc2)N2CCN(C3CCCCC3)CC2)cc(C(F)(F)F)c1 (stereo not drawn) [Example 36, 3,5-Bistrifluoromethylbenzyl-[2-phenyl-2-(4-cyclohexylpiperazine-1-yl)-ethyl]-amine] | 18 nM
3 | FC(F)(F)c1cc(CNCC(c2ccc(Cl)c(Cl)c2)N2CCN(C3CCCCC3)CC2)cc(C(F)(F)F)c1 (stereo not drawn) [Example 49, 3,5-Bistrifluoromethylbenzyl-[2-(3,4-dichlorophenyl)-2-(4-cyclohexylpiperazine-1-yl]-ethyl]-amine] | 37 nM
4 | CN1CCN(C(CNCc2cc(C(F)(F)F)cc(C(F)(F)F)c2)c2ccccc2)CC1 (stereo not drawn) [Example 30, 3,5-Bistrifluoromethylbenzyl-[2-phenyl-2-(4-methylperazine-1-yl)-ethyl]-amine] | 90 nM
5 | COc1ccccc1C(CNCc1cc(C(F)(F)F)cc(C(F)(F)F)c1)N1CCN(Cc2ccc3c(c2)OCO3)CC1 (stereo not drawn) [Example 27, 3,5-Bistrifluoromethylbenzyl-[2-(2-methoxyphenyl)-2-(4-(3,4-methylenedioxybenzyl)-piperazine-1-yl)-ethyl]-amine] | 111 nM
6 | COc1ccccc1C(CNC(=O)Nc1cc(C(F)(F)F)cc(C(F)(F)F)c1)N1CCC(C)CC1 (stereo not drawn) [Example 170] | 84 nM
7 | COc1ccccc1C(CNCc1cc(C(F)(F)F)cc(C(F)(F)F)c1)N1CCN(Cc2ccccc2)CC1 (stereo not drawn) [Example 22, 3,5-Bistrifluoromethylbenzyl-[2-(2-methoxyphenyl)-2-(4-benzylpiperazine-1-yl)-ethyl]-amine] | 154 nM
8 | COc1ccccc1C(CNC(=O)Nc1cc(C(F)(F)F)cc(C(F)(F)F)c1)N1CCC(C2CCCCC2)CC1 (stereo not drawn) [Example 171, N-3,5-Bistrifluoromethylphenyl-N'-[2-(2-methoxyphenyl)-2-(4-cyclohexylpiperidin-1-yl)-ethyl]-urea] | 898 nM
9 | COc1ccccc1C(CNC(=O)Nc1cc(C(F)(F)F)cc(C(F)(F)F)c1)N1CCN(C2CCCCCC2)CC1 (stereo not drawn) [Example 120, N-3,5-Bistrifluoromethylphenyl-N'-[2-(2-methoxyphenyl)-2-(4-cycloheptylpiperazine-1-yl)-ethyl]-urea] | 36 nM

Other lines, results leading:

Row | Ki | SMILES
10 | 24 nM | COc1ccccc1C(CNC(=O)Nc1cc(C(F)(F)F)cc(C(F)(F)F)c1)N1CCN(C2CCCCC2)CC1 (stereo not drawn) [Example 116, N-3,5-Bistrifluoromethylphenyl-N'-[2-(2-methoxyphenyl)-2-(4-cyclohexylpiperazine-1-yl)-ethyl]-urea]
11 | 30 nM | O=C(NCC(c1ccccc1)N1CCN(C2CCCCC2)CC1)Nc1cc(C(F)(F)F)cc(C(F)(F)F)c1 (stereo not drawn) [Example 115, N-3,5-Bistrifluoromethylphenyl-N'-[2-phenyl-2-(4-cyclohexylpiperazine-1-yl)-ethyl]-urea]
12 | 20 nM | COc1ccccc1C(CNCc1cc(C(F)(F)F)cc(C(F)(F)F)c1)N1CCN(CCC2CCCCC2)CC1 (stereo not drawn) [Example 54, 3,5-Bistrifluoromethylbenzyl-[2-(2-methoxyphenyl)-2-(4-(2-cyclohexylethyl)-piperazine-1-yl)-ethyl]-amine]
13 | 43 nM | COc1ccccc1C(CNCc1cc(C(F)(F)F)cc(C(F)(F)F)c1)N1CCCCC1C (stereo not drawn) [Example 80, 3,5-Bistrifluoromethylbenzyl-[2-(2-methoxyphenyl)-2-(2-methylpiperidine-1-yl)-ethyl]-amine]
14 | 64 nM | COc1ccccc1C(CNCc1cc(C(F)(F)F)cc(C(F)(F)F)c1)N1CCN(CCO)CC1 (stereo not drawn) [Example 57, 3,5-Bistrifluoromethylbenzyl-[2-(2-methoxyphenyl)-2-(4-(2-hydroxyethyl)-piperazine-1-yl)-ethyl]-amine]
15 | 46 nM | COc1ccccc1C(CNCCc1cc(C(F)(F)F)cc(C(F)(F)F)c1)N1CCCCC1 (stereo not drawn) [Example 79, 2-(3,5-Bistrifluoromethylphenyl)-2'-(2-methoxyphenyl)-2'-piperidine-1-yl-diethylamine]
